The results in this text go back to patent publication US20250340591A1, “COMPOSITION FOR PREVENTING OR TREATING INFLAMMATORY BOWEL DISEASE CONTAINING NOVEL COMPOUND” (ANYGEN CO., LTD., priority 2021, published 2025).

The target of series [1] is T1, GPR39 (Homo sapiens, UniProt O43194).
T1 sequence (O43194 1-453): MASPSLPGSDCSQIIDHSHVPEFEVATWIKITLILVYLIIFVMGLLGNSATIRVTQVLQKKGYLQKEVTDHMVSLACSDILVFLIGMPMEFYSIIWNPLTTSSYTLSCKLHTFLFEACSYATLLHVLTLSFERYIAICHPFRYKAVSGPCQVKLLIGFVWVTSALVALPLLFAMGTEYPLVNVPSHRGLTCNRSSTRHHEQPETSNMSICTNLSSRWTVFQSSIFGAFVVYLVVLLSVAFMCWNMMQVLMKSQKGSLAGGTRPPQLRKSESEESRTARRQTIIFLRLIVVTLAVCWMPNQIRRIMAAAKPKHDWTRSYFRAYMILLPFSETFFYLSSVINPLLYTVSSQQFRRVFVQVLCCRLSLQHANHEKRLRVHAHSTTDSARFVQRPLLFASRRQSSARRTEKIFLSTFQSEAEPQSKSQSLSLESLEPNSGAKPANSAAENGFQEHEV
In words: luciferase assay system (SRE luciferase reporter gene, CV-1 cells expressing GPR39). Further details: expressed in transfected cells; host or cells: CV-1 fibroblast cell line (Korea Cell Line Bank), adenoviral transduction at 50 MOI. It is filed as cell-based.

The subject of series [2] is HT-29 cells. In words: LPS-induced inflammation cell model of inflammatory bowel disease (HT-29), qPCR and ELISA. It is filed as cell-based. As to conditions: HT-29, 1 μg/mL LPS, vs LPS alone. On the procedure: In order to confirm the effect of HKFY-34 on anti-inflammatory action, which is one of the gastrointestinal tract protective function (barrier function) by GPR39, the anti-inflammatory activity of HKFY-34 was evaluated in a cell model of inflammatory bowel disease (IBD).
Specifically, the HT-29 cells were treated with 1 μg/mL LPS to induce inflammation and prepare an inflammatory bowel disease model, and were treated with HKFY-34 at different concentrations. Thereafter, the expression levels of mRNA (FIG. 81) and protein (FIG. 82) of inflammation factors for ulcerative colitis were measured through qPCR and ELISA.

Series [3] deals with ulcerative colitis-induced wild type mice. Put plainly: DSS-induced ulcerative colitis in wild type littermate mice. It is filed as in vivo. On the procedure: In order to confirm the effect of HKFY-34 in an inflammatory bowel disease model using GPR39 as a target substance, a disease model of ulcerative colitis was prepared using GPR39 deficient mice (GPR39 knock out (KO), Gpr39^−/−). At this time, wild type mice born from a litter were set as a control group for each treated group of GPR39 deficient mice.
Specifically, an animal model of ulcerative colitis was prepared by feeding GPR39 deficient mice (Lexicon pharmaceuticals) and wild type mice with water containing 3% DSS in the same manner as in Experimental Example 7. GPR39 KO mice fed with only DSS (vehicle+3% DSS) were set as a negative control group, and GPR39 KO mice administered with HKFY-34 (10 mg/kg) (HKFY-34 10 mg/kg+3% DSS) were set as a test group. Intraperitoneal administration was performed once a day for 5 days.

The target of series [4] is T2, ghrelin receptor (GHSR) (Homo sapiens, UniProt Q92847).
T2 construct: expressed in transfected cells
In words: luciferase assay system, ghrelin receptor family selectivity. It is filed as cell-based. The settings on record: compared with intrinsic ligand, FIG. 74. On the procedure:
(§1) In addition, through the activity test of the HKFY derivatives for similar receptors to GPR39, ghrelin receptor family (ghrelin receptor (GHSR), motilin receptor (MTLR), neurotensin receptor (NTSR1 & NTSR2), neuromedin U receptor (NMU1 & NMU2), TRH (thyrotropin releasing hormone) receptor (TRHR)), the selectivity and specificity for the GPR39 receptor were confirmed.
(§2) Specifically, the degree of activity between the intrinsic ligand and HKFY-34 for each receptor was analyzed using a luciferase assay system (FIG. 74).

The target in series [5] is T3, motilin receptor (MTLR) (Homo sapiens, UniProt O43193).
T3 construct: expressed in transfected cells
The description is as above. It is filed as cell-based. The settings on record: compared with intrinsic ligand, FIG. 74. On the procedure:
as §1, §2

Series [6] addresses T4, neuromedin U receptor (NMU1) (Homo sapiens, UniProt Q9HB89).
T4 construct: expressed in transfected cells
T4 sequence (Q9HB89 1-426): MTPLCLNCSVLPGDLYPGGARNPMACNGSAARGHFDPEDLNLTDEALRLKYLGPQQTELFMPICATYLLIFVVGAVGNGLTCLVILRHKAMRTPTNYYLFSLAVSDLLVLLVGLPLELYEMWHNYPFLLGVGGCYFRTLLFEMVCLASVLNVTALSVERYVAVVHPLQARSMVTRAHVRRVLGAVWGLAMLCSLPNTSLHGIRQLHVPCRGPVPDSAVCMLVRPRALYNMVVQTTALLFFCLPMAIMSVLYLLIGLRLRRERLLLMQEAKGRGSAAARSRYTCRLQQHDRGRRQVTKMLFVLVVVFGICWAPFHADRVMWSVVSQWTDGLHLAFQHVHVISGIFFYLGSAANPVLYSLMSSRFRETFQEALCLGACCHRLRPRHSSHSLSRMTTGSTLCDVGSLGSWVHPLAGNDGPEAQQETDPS
The series is described as above. It is filed as cell-based. The settings on record: compared with intrinsic ligand, FIG. 74. The method, then:
as §1, §2

The target of series [7] is T5, neurotensin receptor (NTSR1) (Homo sapiens, UniProt P30989).
T5 construct: expressed in transfected cells
The description is as above. It is filed as cell-based. The settings on record: compared with intrinsic ligand, FIG. 74. On the procedure: as §1, §2

The target of series [8] is T6, TRH (thyrotropin releasing hormone) receptor (TRHR) (Homo sapiens, UniProt P34981).
T6 construct: expressed in transfected cells
T6 sequence (P34981 1-398): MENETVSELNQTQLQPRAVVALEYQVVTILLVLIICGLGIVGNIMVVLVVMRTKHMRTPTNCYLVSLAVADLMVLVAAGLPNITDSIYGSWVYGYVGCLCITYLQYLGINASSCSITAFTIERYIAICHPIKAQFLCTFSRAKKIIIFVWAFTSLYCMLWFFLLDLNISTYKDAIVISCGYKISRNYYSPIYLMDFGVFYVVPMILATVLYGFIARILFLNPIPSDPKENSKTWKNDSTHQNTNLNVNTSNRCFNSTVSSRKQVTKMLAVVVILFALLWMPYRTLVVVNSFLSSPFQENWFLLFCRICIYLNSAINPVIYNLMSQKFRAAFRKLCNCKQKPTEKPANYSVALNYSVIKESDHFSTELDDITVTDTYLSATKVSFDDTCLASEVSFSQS
The series is described as above. It is filed as cell-based. The settings on record: compared with intrinsic ligand, FIG. 74. The method, then: as §1, §2

In series [9] the target is T7, neurotensin receptor (NTSR2) (Homo sapiens, UniProt O95665).
T7 construct: expressed in transfected cells
The series is described as above. It is filed as cell-based. The settings on record: compared with intrinsic ligand, FIG. 74. The method, then:
as §1, §2

Series [10] addresses T8, neuromedin U receptor (NMU2) (Homo sapiens, UniProt Q9GZQ4).
T8 construct: expressed in transfected cells
Described as above. It is filed as cell-based. The settings on record: compared with intrinsic ligand, FIG. 74. The method, then: as §1, §2

T2 sequence (Q92847 whole entry, species assumed): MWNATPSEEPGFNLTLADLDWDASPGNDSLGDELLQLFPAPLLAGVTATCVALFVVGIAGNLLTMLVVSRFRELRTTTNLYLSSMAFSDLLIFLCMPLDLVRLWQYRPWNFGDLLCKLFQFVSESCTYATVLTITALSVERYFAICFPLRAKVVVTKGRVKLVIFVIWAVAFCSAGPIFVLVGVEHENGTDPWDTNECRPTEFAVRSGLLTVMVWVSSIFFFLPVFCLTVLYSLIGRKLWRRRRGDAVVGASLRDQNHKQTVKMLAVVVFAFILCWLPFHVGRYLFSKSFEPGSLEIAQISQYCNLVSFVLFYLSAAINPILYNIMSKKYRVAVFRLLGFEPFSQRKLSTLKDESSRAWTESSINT
T7 sequence (O95665 whole entry, species assumed): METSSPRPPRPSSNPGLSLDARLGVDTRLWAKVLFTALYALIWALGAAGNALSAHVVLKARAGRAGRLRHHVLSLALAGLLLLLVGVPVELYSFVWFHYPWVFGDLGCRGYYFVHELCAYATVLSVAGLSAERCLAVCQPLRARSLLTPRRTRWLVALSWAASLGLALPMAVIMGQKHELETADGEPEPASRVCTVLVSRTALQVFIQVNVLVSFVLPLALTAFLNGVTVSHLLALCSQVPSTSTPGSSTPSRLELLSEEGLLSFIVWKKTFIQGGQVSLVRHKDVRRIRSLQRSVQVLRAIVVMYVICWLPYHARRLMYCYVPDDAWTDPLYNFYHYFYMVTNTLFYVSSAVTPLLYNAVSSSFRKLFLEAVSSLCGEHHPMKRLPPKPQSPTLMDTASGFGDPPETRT
T3 sequence (O43193 whole entry, species assumed): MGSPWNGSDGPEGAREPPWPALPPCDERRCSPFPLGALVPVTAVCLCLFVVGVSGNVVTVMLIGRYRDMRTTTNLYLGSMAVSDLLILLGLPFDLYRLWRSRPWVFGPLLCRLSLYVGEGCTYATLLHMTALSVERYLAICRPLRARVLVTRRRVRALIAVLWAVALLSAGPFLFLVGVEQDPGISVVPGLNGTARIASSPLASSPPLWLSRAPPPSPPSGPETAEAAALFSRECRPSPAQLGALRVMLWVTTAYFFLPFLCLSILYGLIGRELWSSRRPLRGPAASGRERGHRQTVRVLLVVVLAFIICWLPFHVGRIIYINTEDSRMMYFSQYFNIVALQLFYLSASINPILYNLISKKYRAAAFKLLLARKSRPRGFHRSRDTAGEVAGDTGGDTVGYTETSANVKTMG
T8 sequence (Q9GZQ4 whole entry, species assumed): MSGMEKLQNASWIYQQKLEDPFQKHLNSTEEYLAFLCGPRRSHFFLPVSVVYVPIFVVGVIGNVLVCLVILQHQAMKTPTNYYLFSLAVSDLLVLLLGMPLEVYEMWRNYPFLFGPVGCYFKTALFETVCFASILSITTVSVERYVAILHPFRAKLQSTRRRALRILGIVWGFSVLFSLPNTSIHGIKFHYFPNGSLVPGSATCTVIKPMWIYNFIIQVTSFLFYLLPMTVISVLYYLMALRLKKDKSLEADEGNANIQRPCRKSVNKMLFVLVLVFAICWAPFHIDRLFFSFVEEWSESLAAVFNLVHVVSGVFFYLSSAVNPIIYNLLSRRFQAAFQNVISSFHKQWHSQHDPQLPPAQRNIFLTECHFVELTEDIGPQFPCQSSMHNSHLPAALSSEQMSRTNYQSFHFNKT
T5 sequence (P30989 whole entry, species assumed): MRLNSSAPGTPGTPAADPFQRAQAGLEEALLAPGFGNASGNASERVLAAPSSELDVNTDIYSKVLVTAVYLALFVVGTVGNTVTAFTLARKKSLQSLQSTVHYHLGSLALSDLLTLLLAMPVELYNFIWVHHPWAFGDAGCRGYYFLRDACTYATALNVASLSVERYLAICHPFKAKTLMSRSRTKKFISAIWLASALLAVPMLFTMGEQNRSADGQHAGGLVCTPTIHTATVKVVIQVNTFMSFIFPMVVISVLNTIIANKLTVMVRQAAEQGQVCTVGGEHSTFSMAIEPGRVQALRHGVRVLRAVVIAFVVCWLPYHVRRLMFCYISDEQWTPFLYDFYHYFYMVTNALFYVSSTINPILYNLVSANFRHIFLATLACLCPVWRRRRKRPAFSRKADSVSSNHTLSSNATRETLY

Take `CCCCCCCC(=O)NCCCC[C@H](NC(=O)[C@@H](N)Cc1cn(C(c2ccccc2)c2ccccc2)cn1)C(=O)N[C@H](Cc1ccc(C)cc1)C(=O)N[C@@H](Cc1ccc(O)cc1)C(=O)O` [HKFY-34, ((R)-2-((S)-2-((S)-2-amino-3-(1-benzhydryl-1H-imidazol-4-yl)propanamido)-6-octanamidohexanamido)-3-(p-tolyl)propanoyl)-L-tyrosine]: in [1], the “ECmax (−fold induction over basal)” value came to 22.39 ± 4.59 fold induction over basal and the “Reporter gene assay ECmax (−fold induction over basal)” value is given as 22.39 ± 4.59 fold induction over basal. Further, the “activity level for GPR39 (in words)” value in series [1] (comment on Table 3) was “higher activity level than other HKFY derivatives”. Further, the “activity and ECmax value for GPR39 (in words)” value in series [1] (comment on Table 3, derivatives composed of d-Phe(methyl)) is “most excellent activity and high ECmax value”. Further, in series [2] (ELISA, FIG. 82), the “secretion level of IL-1β” value is given as “significantly decreased by HKFY-34 treatment in a dose-dependent manner”, the “secretion level of IL-6” value is reported as “significantly decreased by HKFY-34 treatment in a dose-dependent manner”, the “secretion level of IL-8” value is listed as “significantly decreased by HKFY-34 treatment in a dose-dependent manner” and the “secretion level of TNF-α” value is “significantly decreased by HKFY-34 treatment in a dose-dependent manner”. Further, in series [2] (qPCR, FIG. 81), the “mRNA expression level of IL-1β” value is recorded as “significantly decreased by HKFY-34 treatment in a dose-dependent manner”, the “mRNA expression level of IL-6” value is reported as “significantly decreased by HKFY-34 treatment in a dose-dependent manner”, the “mRNA expression level of IL-8” value was “significantly decreased by HKFY-34 treatment in a dose-dependent manner” and the “mRNA expression level of TNF-α” value was “significantly decreased by HKFY-34 treatment in a dose-dependent manner”. Moreover, the “decrease in colon length” value in [3] (10 mg/kg intraperitoneal for 5 days, FIG. 92) is “inhibited”. Moreover, in series [3] (10 mg/kg intraperitoneal for 5 days, FIG. 95), the “damage due to inflammation of colon tissue (H&E staining)” value is “reduced”. Further, in series [3] (10 mg/kg intraperitoneal once a day for 5 days, 3% DSS, FIG. 91), the body weight loss result is “inhibited”. Further, the “activity for GHSR” value in series [4] is reported as “very low”. Moreover, the “activity for MTLR” value in [5] was “very low”. The “activity for NMU1” value in [6] was “very low”. The “activity for NTSR1” value in series [7] is recorded as “very low”. Also, in [8], the “activity for TRHR” value is given as “very low”. The “activity for NTSR2” value in series [9] was “very low”. Besides, the “activity for NMU2” value in series [10] is recorded as “very low”.
